Experimental data as given in US20220073496A1, “NOVEL QUINOLINE DERIVATIVE INHIBITOR” (Nanjing Transthera Biosciences Co., Ltd., priority 2018, published 2022).

Assays:
Ba/F3 ETV6-NTRK2 cells = biological target: T1, Ba/F3 ETV6-NTRK2 cells (Homo sapiens, UniProt Q16620); assay: Cell viability test (CTG), Ba/F3 ETV6-NTRK2; format: cell-based; conditions: NTRK2 wild type cell, 72 hours, read-out: IC50 Ba/F3 ETV6-NTRK2
T1 construct: fused on or other part: P41212 (Transcription factor ETV6)
Procedure: (§1) Assay 8: Cell viability test of the compounds of the present invention
Ba/F3 ETV6-NTRK2 is an NTRK 2 wild type cell;
(§2) Test substances: the compounds of the present invention, wherein the structures thereof were as described above.
(§3) Test instrument: SpectraMax multi-label microplate reader.
(§4) Each cell was inoculated in a 96-well plate and adherent cells were cultivated overnight. Different concentrations of the compounds (9 dose groups, 3.16 times DMSO serial dilution) were added to give the final concentration of 0.1-1000 nM, and the final DMSO content was 1‰. The negative control wells contained the medium containing 1‰ DMSO. The cells were incubated at 37° C. in a condition of 5% CO2 and 95% humidity for 72 hours for use. An equal volume of CTG reagent was added to each well, and the cells were lysed by shaking for 5 minutes on an orbital shaker, and incubated for 20 minutes at room temperature to stabilize the cold light signal. The cold light signal was read with a microplate reader. Data were analyzed using GraphPad Prism 5.0 software, and data were fitted using nonlinear S-curve regression to derive a dose-response curve and thereby calculate IC50 values.

Ba/F3 LMNA-NTRK1 cells = biological target: T2, Ba/F3 LMNA-NTRK1 cells (Homo sapiens, UniProt P04629); assay: Cell viability test (CTG), Ba/F3 LMNA-NTRK1; format: cell-based; conditions: NTRK1 wild type cell, 72 hours, read-out: IC50 Ba/F3 LMNA-NTRK1
T2 construct: fused on or other part: P02545 (Prelamin-A/C)
Procedure: as §1
Ba/F3 LMNA-NTRK1 is an NTRK1 wild type cell;
as §2, §3, §4

TrkA (h) = biological target: T3, TrkA (h) (Homo sapiens, UniProt P04629); assay: Enzymatic activity test, TrkA (h); format: biochemical; conditions: 10 μM [γ-33P]-ATP, 40 minutes, room temperature
T3 construct: purchased
Procedure: (§5) Assay 4: Enzymatic Activity Test of the Compound of the Present Invention
(§6) Test substances: the compounds of the present invention, wherein the structures and preparations thereof were as described above.
(§7) Preparation of the Compound Stock Solution
(§8) The compound was dissolved in 100% DMSO to prepare a stock solution with a maximum concentration of 500 μM.
(§9) Preparation of the Compound Working Solution
(§10) The compound stock solution was diluted to final concentrations of 500, 150, 50, 15. 5, 1.5, 0.5, 0.15 and 0.05 μM to become the compound working solutions (50×).
(§11) Preparation of Different Enzyme Reaction Solutions
The TrkA (h) enzyme was dissolved in 8 mM MOPS (pH 7.0), 0.2 mM EDTA, and 250 μM KKKSPGEYVNIEFG to prepare an enzyme solution having a final concentration of 1.7 nM. The enzymatic reaction was activated by using 10 mM magnesium acetate and 10 μM [γ-^33P]-ATP to form an Mg/ATP mixed solution.
(§12) In a 384-well plate, the compound working solution was added to final concentrations of 10000, 3000, 1000, 300, 100, 30, 10, 3, and 1 nM. Then different enzyme reaction solutions prepared according to the above conditions were added. The incubation was carried out for 40 minutes at room temperature. The test was terminated by the addition of a 0.5% phosphoric acid solution. 10 μL of the reaction solution was taken and dropped to the P30 filter paper. The filter paper was washed 4 times with 0.425% phosphoric acid solution and once with methanol, and then placed on a scintillation counter. The […] IC50 values were calculated using GraphPad 5.0 software.

TrkC (h) = biological target: T4, TrkC (h) (Homo sapiens, UniProt Q16288); assay: Enzymatic activity test, TrkC (h); format: biochemical; conditions: 10 μM [γ-33P]-ATP, 40 minutes, room temperature
T4 construct: purchased
Procedure: as §5, §6, §7, §8, §9, §10, §11
The TrkC (h) enzyme was dissolved in 8 mM MOPS (pH 7.0), 0.2 mM EDTA, and 500 μM GEEPLYWSFPAKKK to prepare an enzyme solution having a final concentration of 38 nM. The enzymatic reaction was activated by using 10 mM magnesium acetate and 10 μM [γ-^33P]-ATP to form an Mg/ATP mixed solution.
as §12

TrkB (h) = biological target: T5, TrkB (h) (Homo sapiens, UniProt Q16620); assay: Enzymatic activity test, TrkB (h); format: biochemical; conditions: 10 μM [γ-33P]-ATP, 40 minutes, room temperature
T5 construct: purchased
Procedure: as §5, §6, §7, §8, §9, §10, §11
The TrkB (h) enzyme was dissolved in 8 mM MOPS (pH 7.0), 0.2 mM EDTA, and 0.1 mg/mL poly(Glu, Tyr) 4:1 to prepare an enzyme solution having a final concentration of 3.1 nM. The enzymatic reaction was activated by using 10 mM magnesium acetate and 10 μM [γ-^33P]-ATP to form an Mg/ATP mixed solution,
as §12

[1] = biological target: T6, pCSF1R in CSF1R plasmid-transfected HEK293T cells (Homo sapiens, UniProt P07333); assay: Inhibitory activity on the cell pCSF1R (Western Blot); format: cell-based; conditions: compound 30, 100, 300, 1000 nM, 120 minutes
T6 construct: expressed in transfected cells; host or cells: HEK293T
Procedure: Assay 7: Test for Inhibitory Activities of the Compounds of the Present Invention on the Cell pCSF1R
HEK293T is a human renal epithelial cell.
as §2
Test equipment: protein electrophoresis apparatus (manufactured by Bio Rad), transfer unit (manufactured by Bio Rad), exposure unit (manufactured by Tanon), CO2 cell incubator (manufactured by Thermo).
The BEK293T cells were inoculated in a 6-well plate (containing 10% FBS DMEM medium, 4×10^5 cells per well), and adherent cells were cultivated at 37° C. in a 5% CO2 condition for 6 hours. Each well was transfected with 2 μg CSF1R plasmid, and the cells were cultivated at 37° C. in a 5% CO2 condition overnight. At 24 hours after transfection, different concentrations of compounds were added to the administration group. The final compound concentrations were 30, 100, 300, and 1000 nM, and the final DMSO content was 1‰. The negative control wells contained the medium containing 1‰ DMSO. […] The inhibitory activity of the compound on the cell pCSF1R was examined.

[2] = biological target: T7, Ba/F3 LMNA-NTRK1 G667C cells (Homo sapiens, UniProt P04629, G667C, cells depend on it); assay: Cell viability test (CTG), Ba/F3 LMNA-NTRK1 G667C; format: cell-based; conditions: NTRK1 gene mutant cell, 72 hours, read-out: IC50 Ba/F3 LMNA-NTRK1 G667C
T7 construct: Ba/F3 LMNA-NTRK1 G667C and Ba/F3 LMNA-NTRK1-V573M are NTRK1 gene mutant cells; fused on or other part: P02545 (Prelamin-A/C)
Excerpt: as §1
(§13) Ba/F3 LMNA-NTRK1 G667C and Ba/F3 LMNA-NTRK1-V573M are NTRK1 gene mutant cells.
as §2, §3, §4

[3] = biological target: T8, Ba/F3 LMNA-NTRK1-V573M cells (Homo sapiens, UniProt P04629, V573M, cells depend on it); assay: Cell viability test (CTG), Ba/F3 LMNA-NTRK1-V573M; format: cell-based; conditions: NTRK1 gene mutant cell, 72 hours, read-out: IC50 Ba/F3 LMNA-NTRK1-V573M
T8 construct: Ba/F3 LMNA-NTRK1 G667C and Ba/F3 LMNA-NTRK1-V573M are NTRK1 gene mutant cells; fused on or other part: P02545 (Prelamin-A/C)
Excerpt: as §1, §13, §2, §3, §4

T2 sequence (P04629 whole entry, change not shown, the tested form may be a part): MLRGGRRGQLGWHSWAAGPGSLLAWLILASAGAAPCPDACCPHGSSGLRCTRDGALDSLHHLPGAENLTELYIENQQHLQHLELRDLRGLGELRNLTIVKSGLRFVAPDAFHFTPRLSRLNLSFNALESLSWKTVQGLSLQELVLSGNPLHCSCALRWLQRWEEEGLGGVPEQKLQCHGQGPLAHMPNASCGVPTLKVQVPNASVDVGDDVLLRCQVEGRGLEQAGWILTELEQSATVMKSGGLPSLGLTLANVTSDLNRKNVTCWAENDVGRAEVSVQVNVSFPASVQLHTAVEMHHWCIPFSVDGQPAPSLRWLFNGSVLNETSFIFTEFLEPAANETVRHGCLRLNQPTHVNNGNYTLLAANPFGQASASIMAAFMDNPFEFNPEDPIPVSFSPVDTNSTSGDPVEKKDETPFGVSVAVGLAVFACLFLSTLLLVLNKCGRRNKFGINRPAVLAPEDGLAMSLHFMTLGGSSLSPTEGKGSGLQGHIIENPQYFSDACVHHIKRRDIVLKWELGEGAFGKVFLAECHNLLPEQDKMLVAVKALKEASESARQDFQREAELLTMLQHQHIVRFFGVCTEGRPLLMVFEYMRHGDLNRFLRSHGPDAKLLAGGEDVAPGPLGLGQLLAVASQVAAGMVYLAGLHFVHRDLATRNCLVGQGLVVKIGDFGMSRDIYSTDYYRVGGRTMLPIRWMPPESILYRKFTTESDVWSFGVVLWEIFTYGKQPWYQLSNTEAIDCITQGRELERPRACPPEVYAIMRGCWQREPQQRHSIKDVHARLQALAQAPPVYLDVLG
T8 sequence (P04629 whole entry V573M, the tested form may be a part): as the sequence (P04629 whole entry, change not shown, the tested form may be a part) above, with V573M counted along it
T5 sequence (Q16620 32-822): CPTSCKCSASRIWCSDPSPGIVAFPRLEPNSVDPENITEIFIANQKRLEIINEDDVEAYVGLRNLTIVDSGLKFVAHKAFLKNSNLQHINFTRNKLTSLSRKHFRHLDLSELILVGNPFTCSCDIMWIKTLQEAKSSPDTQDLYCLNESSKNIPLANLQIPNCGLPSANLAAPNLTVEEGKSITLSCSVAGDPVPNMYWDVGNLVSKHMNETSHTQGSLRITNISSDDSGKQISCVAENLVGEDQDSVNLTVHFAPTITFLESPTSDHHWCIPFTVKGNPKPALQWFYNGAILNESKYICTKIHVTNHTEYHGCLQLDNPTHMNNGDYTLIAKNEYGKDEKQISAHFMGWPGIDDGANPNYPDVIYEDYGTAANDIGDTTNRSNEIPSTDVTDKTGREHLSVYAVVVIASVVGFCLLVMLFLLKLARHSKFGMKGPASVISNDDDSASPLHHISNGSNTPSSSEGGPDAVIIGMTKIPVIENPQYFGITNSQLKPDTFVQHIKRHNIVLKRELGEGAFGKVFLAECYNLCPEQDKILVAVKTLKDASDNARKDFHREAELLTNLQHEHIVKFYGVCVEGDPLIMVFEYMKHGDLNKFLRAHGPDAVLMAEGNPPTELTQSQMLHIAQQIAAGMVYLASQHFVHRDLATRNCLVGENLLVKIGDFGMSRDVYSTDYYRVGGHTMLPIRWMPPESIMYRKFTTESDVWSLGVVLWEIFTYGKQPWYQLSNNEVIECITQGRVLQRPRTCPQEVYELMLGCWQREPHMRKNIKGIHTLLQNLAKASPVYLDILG
T4 sequence (Q16288 32-839): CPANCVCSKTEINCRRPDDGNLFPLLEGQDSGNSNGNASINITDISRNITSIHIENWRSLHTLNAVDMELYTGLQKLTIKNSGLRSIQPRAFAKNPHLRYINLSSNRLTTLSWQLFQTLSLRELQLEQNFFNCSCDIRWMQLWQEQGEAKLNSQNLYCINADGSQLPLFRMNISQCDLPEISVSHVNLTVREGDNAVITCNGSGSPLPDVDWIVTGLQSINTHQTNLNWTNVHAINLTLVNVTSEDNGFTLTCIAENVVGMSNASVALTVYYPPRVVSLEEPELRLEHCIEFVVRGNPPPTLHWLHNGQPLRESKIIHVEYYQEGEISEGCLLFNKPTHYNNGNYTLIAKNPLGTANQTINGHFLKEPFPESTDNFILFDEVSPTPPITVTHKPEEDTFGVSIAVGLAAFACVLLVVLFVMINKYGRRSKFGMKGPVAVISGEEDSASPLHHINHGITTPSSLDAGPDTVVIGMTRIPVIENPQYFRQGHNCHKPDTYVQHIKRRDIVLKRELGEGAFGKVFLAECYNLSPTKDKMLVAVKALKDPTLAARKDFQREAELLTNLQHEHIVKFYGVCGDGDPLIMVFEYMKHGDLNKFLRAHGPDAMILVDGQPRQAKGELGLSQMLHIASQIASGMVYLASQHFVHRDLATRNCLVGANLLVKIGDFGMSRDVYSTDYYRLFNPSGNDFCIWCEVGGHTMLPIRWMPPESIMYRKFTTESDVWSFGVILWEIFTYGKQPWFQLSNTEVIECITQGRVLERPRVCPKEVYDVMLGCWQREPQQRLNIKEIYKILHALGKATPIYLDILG
T7 sequence (P04629 whole entry G667C, the tested form may be a part): as the sequence (P04629 whole entry, change not shown, the tested form may be a part) above, with G667C counted along it
T3 sequence (P04629 33-796): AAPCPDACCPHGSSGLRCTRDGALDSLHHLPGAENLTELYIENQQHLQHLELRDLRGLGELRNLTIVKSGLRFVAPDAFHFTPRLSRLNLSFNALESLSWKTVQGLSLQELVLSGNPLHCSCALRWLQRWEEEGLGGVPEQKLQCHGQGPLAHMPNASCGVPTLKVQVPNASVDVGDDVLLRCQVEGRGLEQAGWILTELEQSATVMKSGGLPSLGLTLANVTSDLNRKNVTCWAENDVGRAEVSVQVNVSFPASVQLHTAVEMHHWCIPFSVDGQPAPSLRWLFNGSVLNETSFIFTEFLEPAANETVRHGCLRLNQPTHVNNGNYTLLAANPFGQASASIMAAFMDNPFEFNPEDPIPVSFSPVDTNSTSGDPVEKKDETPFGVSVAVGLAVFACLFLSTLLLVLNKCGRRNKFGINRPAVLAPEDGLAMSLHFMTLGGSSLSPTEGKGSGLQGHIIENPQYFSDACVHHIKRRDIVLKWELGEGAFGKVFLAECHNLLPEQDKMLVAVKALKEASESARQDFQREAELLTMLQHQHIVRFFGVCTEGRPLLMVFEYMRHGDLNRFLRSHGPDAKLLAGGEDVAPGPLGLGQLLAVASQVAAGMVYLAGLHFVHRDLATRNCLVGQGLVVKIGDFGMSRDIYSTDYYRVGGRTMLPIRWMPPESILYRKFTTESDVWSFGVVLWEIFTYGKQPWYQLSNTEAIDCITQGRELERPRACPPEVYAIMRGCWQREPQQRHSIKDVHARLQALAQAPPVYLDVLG
T1 sequence (Q16620 whole entry, change not shown, the tested form may be a part): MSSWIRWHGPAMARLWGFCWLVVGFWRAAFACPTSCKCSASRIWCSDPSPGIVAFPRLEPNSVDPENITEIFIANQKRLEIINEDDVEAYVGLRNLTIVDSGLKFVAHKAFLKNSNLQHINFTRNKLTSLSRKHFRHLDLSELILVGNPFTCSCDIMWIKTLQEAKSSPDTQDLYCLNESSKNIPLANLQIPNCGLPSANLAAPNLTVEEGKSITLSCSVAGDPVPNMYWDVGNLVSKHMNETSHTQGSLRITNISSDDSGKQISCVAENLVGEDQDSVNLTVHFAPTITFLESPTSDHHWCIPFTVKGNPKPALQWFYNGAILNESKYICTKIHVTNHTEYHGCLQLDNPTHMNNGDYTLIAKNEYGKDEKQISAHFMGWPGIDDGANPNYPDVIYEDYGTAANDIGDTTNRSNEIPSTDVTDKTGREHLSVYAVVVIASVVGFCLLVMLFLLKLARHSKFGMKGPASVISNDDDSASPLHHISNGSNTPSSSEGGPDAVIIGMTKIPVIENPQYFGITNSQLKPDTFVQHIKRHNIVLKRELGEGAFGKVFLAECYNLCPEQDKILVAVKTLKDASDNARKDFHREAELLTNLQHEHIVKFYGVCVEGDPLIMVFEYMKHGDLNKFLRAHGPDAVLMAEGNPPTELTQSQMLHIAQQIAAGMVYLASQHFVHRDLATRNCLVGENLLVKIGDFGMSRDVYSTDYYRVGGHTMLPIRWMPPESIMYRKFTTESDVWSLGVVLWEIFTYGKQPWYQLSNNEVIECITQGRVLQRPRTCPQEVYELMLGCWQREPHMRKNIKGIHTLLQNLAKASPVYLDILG
T6 sequence (P07333 20-972): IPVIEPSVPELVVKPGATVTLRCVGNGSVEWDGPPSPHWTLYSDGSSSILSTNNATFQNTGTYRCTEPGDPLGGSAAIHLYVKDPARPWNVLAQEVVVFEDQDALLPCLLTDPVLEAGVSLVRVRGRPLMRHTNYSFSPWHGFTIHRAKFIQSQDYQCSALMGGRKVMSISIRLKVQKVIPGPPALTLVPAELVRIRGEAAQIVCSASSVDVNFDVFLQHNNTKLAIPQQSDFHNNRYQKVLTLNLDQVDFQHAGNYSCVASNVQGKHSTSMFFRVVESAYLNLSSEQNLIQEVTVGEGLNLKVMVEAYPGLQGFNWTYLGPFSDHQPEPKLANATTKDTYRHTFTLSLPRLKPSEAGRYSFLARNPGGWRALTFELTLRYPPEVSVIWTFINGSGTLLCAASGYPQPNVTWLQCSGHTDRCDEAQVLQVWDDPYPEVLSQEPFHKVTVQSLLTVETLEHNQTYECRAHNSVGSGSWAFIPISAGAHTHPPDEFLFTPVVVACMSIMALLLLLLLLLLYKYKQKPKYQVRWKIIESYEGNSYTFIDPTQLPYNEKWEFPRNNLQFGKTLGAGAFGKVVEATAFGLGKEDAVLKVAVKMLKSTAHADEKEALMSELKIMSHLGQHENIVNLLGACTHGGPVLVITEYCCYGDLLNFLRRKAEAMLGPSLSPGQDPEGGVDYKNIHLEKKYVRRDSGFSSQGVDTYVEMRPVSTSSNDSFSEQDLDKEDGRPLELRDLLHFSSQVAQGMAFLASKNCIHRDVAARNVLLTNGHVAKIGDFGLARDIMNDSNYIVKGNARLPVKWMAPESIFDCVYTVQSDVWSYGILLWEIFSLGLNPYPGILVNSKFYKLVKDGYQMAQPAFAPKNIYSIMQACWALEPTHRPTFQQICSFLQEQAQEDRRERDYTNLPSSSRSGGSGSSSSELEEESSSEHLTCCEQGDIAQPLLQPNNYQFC

SMILES | GI50 (Ba/F3 ETV6-NTRK2 cells) [nM] | GI50 (Ba/F3 LMNA-NTRK1 cells) [nM] | IC50 (TrkA (h)) [nM] | IC50 (TrkC (h)) [nM] | IC50 (TrkB (h)) [nM] | IC50 [1] [nM] | GI50 [2] [nM] | GI50 [3] [nM]
COc1cc2nccc(Oc3ccc(NC(=O)c4nn(C(C)C)cc(-c5ccc(F)cc5)c4=O)nc3)c2cc1OC [Compound 15, N-(5-((6,7-dimethoxyquinolin-4-yl)oxy)pyridin-2-yl)-5-(4-fluorophenyl)-1-isopropyl-4-oxo-1,4-dihydropyridazine-3-carboxamide] | 16.4 | 3.28 | 6 | 6 | 3 | 100 to 300 | 0.09 | 0.51
COc1cc2nccc(Oc3ncc(NC(=O)c4nn(C5CC5)cc(-c5ccc(F)cc5)c4=O)cn3)c2cc1OC [Compound 37, 1-cyclopropyl-N-(2-((6,7-dimethoxyquinolin-4-yl)oxy)pyrimidine-5-yl)-5-para-fluorophenyl-4-oxo-1,4-dihydropyridazine-3-carboxamide] |  |  | 7 | 4 | 6 |  |  | 
COc1cc2nccc(Oc3ccc(NC(=O)c4nn(C5CC5)cc(-c5ccc(F)cc5)c4=O)nc3)c2cc1OC [Compound 31] |  | 17.3 | 3 | 3 | 3 | 30 to 100 | 1.4 | 1.4
COc1cc2nccc(Oc3cnc(NC(=O)c4cn(C(C)C)nc(-c5ccc(F)cc5)c4=O)nc3)c2cc1OC [Compound 39, N-(5-((6,7-dimethoxyquinolin-4-yl)oxy)pyrimidine-2-yl)-6-(4-fluorophenyl)-2-isopropyl-5-oxo-2,5-dihydropyridazine-4-carboxamide] |  | 42.4 | 18 | 10 | 17 |  | 8.1 | 5
COc1cc2nccc(Oc3cnc(NC(=O)c4nn(C5CC5)cc(-c5ccc(F)cc5)c4=O)nc3)c2cc1OC [Compound 33] |  | 73 | 13 | 5 | 8 |  | 3 | 6
COc1cc2nccc(Oc3ccc(NC(=O)c4cn(C(C)C)nc(-c5ccc(F)cc5)c4=O)nc3)c2cc1OC [Compound 41, N-(5-((6,7-dimethoxyquinolin-4-yl)oxy)pyridin-2-yl)-6-(4-fluorophenyl)-2-isopropyl-5-oxo-2,5-dihydropyridazine-4-carboxamide] |  |  | 5 |  |  |  |  | 
COc1cc2nccc(Oc3ccc(NC(=O)c4cn(C(C)C)nc(-c5ccc(F)cc5)c4=O)cn3)c2cc1OC [Compound 38, N-(6-((6,7-dimethoxyquinolin-4-yl)oxy)pyridin-3-yl)-6-para-fluorophenyl-2-isopropyl-5-oxo-2,5-dihydropyridazine-4-carboxamide] |  | 55.1 | 11 | 8 | 11 |  | 5.7 | 7.5
COc1cc2nccc(Oc3ncc(NC(=O)c4cn(C(C)C)nc(-c5ccc(F)cc5)c4=O)cn3)c2cc1OC [Compound 40, N-(2-((6,7-dimethoxyquinolin-4-yl)oxy)pyrimidine-5-yl)-6-(4-fluorophenyl)-2-isopropyl-5-oxo-2,5-dihydropyridazine-4-carboxamide] |  | 52.1 | 7 | 14 | 6 |  | 9.1 | 9.1
COc1cc2nccc(Oc3ccc(NC(=O)c4nn(C5CC5)cc(-c5ccc(F)cc5)c4=O)cn3)c2cc1OC [Compound 36] |  |  | 2 | 3 | 4 |  |  | 
COc1cc2nccc(Oc3ncc(NC(=O)c4nn(C(C)C)cc(-c5ccc(F)cc5)c4=O)cn3)c2cc1OC [Compound 34, N-(2-((6,7-dimethoxyquinolin-4-yl)oxy)pyrimidine-5-yl)-5-para-fluorophenyl-1-isopropyl-4-oxo-1,4-dihydropyridazine-3-carboxamide] | 109 | 14.3 | 5 | 6 | 3 |  | 0.68 | 2.7
